Reference: patent US11278024B2 (priority 2017, dated 2022)
Marks after values point to notes of the source that are not given here.

Tests used:
Format in all cases: in vivo
[1] = test system: root-knot nematodes (Meloidogyne spp.); assay: Petri dish nematocidal activity on hatched root-knot nematodes; conditions: for Number of killed root-knot nematodes: 15 nematodes; for Nematocidal efficiency (%): within 3 days; for Nematocidal efficiency on root-knot nematodes (%): geraniol concentration 685 ppm
Experimental: The nematodes used in the experiments were Meloidogyne spp. (hatched from eggs from infected roots of melons from farms in Seongju-gun, Gyeongsangbuk-do, Korea), and were propagated using tomato plants from Ecowin Co. Ltd. and used for experiments.
The tomato roots infected with root-knot nematodes were washed with running water and were then cut to a size of about 1 cm, after which 50 g of the cut roots was placed in a 500 ml round-bottom flask containing 200 ml of 0.5% sodium hypochloride (NaOCl), stopped with a rubber stopper, and shaken vigorously for 3 min to sterilize the roots and at the same time burst the egg bag. Thereafter, the solution was passed through a sieve in which 200 mesh was superimposed on 500 mesh, and washed with distilled water, so the eggs of the root-knot nematodes from which the NaOCl solution was removed were recovered.
Next, the eggs of the root-knot nematodes thus recovered were surface-sterilized with 0.5% NaOCl for 10 min, washed thoroughly with sterile distilled water, placed in a phosphate buffer (1%) containing sterilized normal saline, and hatched in an incubator at 25° C.
Thereafter, […], 2 to 3 ml thereof was poured into a Petri dish, after which 15 hatched root-knot nematodes were placed in the Petri dish, and nematocidal activity was measured and the results thereof are shown in Table 1 below.
Nematocidal activity on root-knot nematodes (treatment concentration: […]) was evaluated in the same manner as in Example 1, with the exception that Ostericum koreanum, clove, Myristica fragrans, Acorus gramineus, Kaempferia galanga and Amomum cardamomum L. extracts were used, in lieu of the naturally derived materials. Here, Ostericum koreanum, clove, Myristica fragrans, Acorus gramineus, Kaempferia galanga and Amomum cardamomum L. were purchased from a medicinal plant retailer located in the Daegu area and then extracted using ethanol according to a typical method. Specifically, each medicine was finely crushed, mixed with ethanol at a ratio of 1:5, and extracted at 180 rpm at room temperature for 48 hr, after which as much ethanol as possible was concentrated using a concentrator.
Nematocidal activity on root-knot nematodes was evaluated in the same manner as in Example 1, with the exception that a neem extract was used in lieu of the naturally derived materials.

spiral nematodes = assay: Petri dish nematocidal activity on spiral nematodes; conditions: geraniol 2,000 ppm; for Number of killed nematodes: 15 spiral nematodes
Source text: (§1) Petri dishes, followed by measurement of nematocidal activity.

tomato seedlings = assay: Phytotoxicity on tomato seedlings in pots, drenching treatment, observed with the naked eye; conditions: 50 ml drench, 1 week after treatment
Experimental: Sterilized soil was uniformly mixed, 300 g thereof was then placed in each pot, and tomato seedlings not infected with root-knot nematodes were transplanted thereto.
Sterilized soil was uniformly mixed, 300 g thereof was then placed in each pot, and tomato seedlings not infected with root-knot nematodes were transplanted thereto. The sample prepared in Example 4 was diluted to a standard amount or a multiple thereof for each treatment group, and then 50 ml thereof was used for drenching treatment.

cyst nematodes = assay: Petri dish nematocidal activity on cyst nematodes; conditions: geraniol 2,000 ppm; for Number of killed nematodes: 15 cyst nematodes
Source text: as §1

root-lesion nematodes = assay: Petri dish nematocidal activity on root-lesion nematodes; conditions: geraniol 2,000 ppm; for Number of killed nematodes: 15 root-lesion nematodes
Source text: as §1

## C/C=C(\C)C(=O)O[C@H]1C[C@@H](OC(C)=O)[C@@]2(C(=O)OC)CO[C@H]3[C@@H](O)[C@@](C)([C@]45O[C@@]4(C)[C@H]4C[C@@H]5O[C@@H]5OC=C[C@@]54O)[C@H]4[C@]1(CO[C@]4(O)C(=O)OC)[C@@H]32 [Azadirachtin, azadirachtin, reference compound]
[1]; 2,000 ppm, 1 day
  Number of killed root-knot nematodes: 7
[1]; 2,000 ppm, 2 days
  Number of killed root-knot nematodes: 8
[1]; 2,000 ppm, 3 days
  Number of killed root-knot nematodes: 10
[1]; 2,000 ppm
  Nematocidal efficiency (%): 66.7%

## CC(C)=CCC/C(C)=C/CO [Geraniol, geraniol]
Spiral nematodes; 1 day
  Number of killed nematodes: 7
Spiral nematodes; 2 days
  Number of killed nematodes: 9
Spiral nematodes; 3 days
  Number of killed nematodes: 13
Spiral nematodes; within 3 days
  Nematocidal efficiency: 86.7%
Tomato seedlings; 100 ppm
  Extent of phytotoxicity (0-5): 0
  Phytotoxicity symptom: No
Tomato seedlings; 200 ppm
  Extent of phytotoxicity (0-5): 0
  Phytotoxicity symptom: No
Tomato seedlings; 330 ppm
  Extent of phytotoxicity (0-5): 0
  Phytotoxicity symptom: No
Tomato seedlings; 500 ppm
  Extent of phytotoxicity (0-5): 0
  Phytotoxicity symptom: No
Tomato seedlings; 1,000 ppm
  Extent of phytotoxicity (0-5): 0
  Phytotoxicity symptom: No
Tomato seedlings; 2,000 ppm
  Extent of phytotoxicity (0-5): 0
  Phytotoxicity symptom: No
Tomato seedlings; 3,000 ppm
  Extent of phytotoxicity (0-5): 0
  Phytotoxicity symptom: No
Tomato seedlings; 4,000 ppm
  Extent of phytotoxicity (0-5): 5
  Phytotoxicity symptom: Withered
Tomato seedlings; 5,000 ppm
  Extent of phytotoxicity (0-5): 5
  Phytotoxicity symptom: Withered
Tomato seedlings; 10,000 ppm
  Extent of phytotoxicity (0-5): 5
  Phytotoxicity symptom: Withered
Tomato seedlings; 20,000 ppm
  Extent of phytotoxicity (0-5): 5
  Phytotoxicity symptom: Withered
Cyst nematodes; 1 day
  Number of killed nematodes: 8
Cyst nematodes; 2 days
  Number of killed nematodes: 11
Cyst nematodes; 3 days
  Number of killed nematodes: 12
Cyst nematodes; within 3 days
  Nematocidal efficiency: 80%
[1]; 100 ppm, 1 day
  Number of killed root-knot nematodes: 5
[1]; 100 ppm, 2 days
  Number of killed root-knot nematodes: 7
[1]; 100 ppm, 3 days
  Number of killed root-knot nematodes: 7
[1]; 100 ppm
  Nematocidal efficiency (%): 46.7%
[1]; 200 ppm, 1 day
  Number of killed root-knot nematodes: 5
[1]; 200 ppm, 2 days
  Number of killed root-knot nematodes: 7
[1]; 200 ppm, 3 days
  Number of killed root-knot nematodes: 13
[1]; 200 ppm
  Nematocidal efficiency (%): 86.7%
[1]; 333 ppm, 1 day
  Number of killed root-knot nematodes: 5
[1]; 333 ppm, 2 days
  Number of killed root-knot nematodes: 6
[1]; 333 ppm, 3 days
  Number of killed root-knot nematodes: 15
[1]; 333 ppm
  Nematocidal efficiency (%): 100%
[1]; 500 ppm, 1 day
  Number of killed root-knot nematodes: 5
[1]; 500 ppm, 2 days
  Number of killed root-knot nematodes: 10
[1]; 500 ppm, 3 days
  Number of killed root-knot nematodes: 15
[1]; 500 ppm
  Nematocidal efficiency (%): 100%
[1]; 1,000 ppm, 1 day
  Number of killed root-knot nematodes: 10
[1]; 1,000 ppm, 2 days
  Number of killed root-knot nematodes: 15
[1]; 1,000 ppm
  Nematocidal efficiency (%): 100%
[1]; 2,000 ppm
  Nematocidal efficiency (%): 100%
[1]; 3,000 ppm, 1 day
  Number of killed root-knot nematodes: 15
[1]; 3,000 ppm
  Nematocidal efficiency (%): 100%
[1]; 10,000 ppm, 1 day
  Number of killed root-knot nematodes: 15^a
[1]; 10,000 ppm
  Nematocidal efficiency (%): 100%
[1]; 1 day
  Nematocidal efficiency on root-knot nematodes (%): 72.5%
[1]; 2 days
  Nematocidal efficiency on root-knot nematodes (%): 93.6%
[1]; 3 days
  Nematocidal efficiency on root-knot nematodes (%): 100.0%
[1]; same geraniol content (685 ppm)
  Nematocidal effect of geraniol alone relative to palmarosa oil containing the same amount of geraniol: about 4.2 times
root-lesion nematodes; 1 day
  Number of killed nematodes: 14^a
root-lesion nematodes; 2 days
  Number of killed nematodes: 15
root-lesion nematodes; within 3 days
  Nematocidal efficiency: 100%

## O=C1CCC[C@@H]2[C@H]3CCC[N+]4([O-])CCC[C@@H](CN12)[C@@H]34 (stereo partly shown) [Oxymatrine, oxymatrine, reference compound]
[1]; 2,000 ppm, 1 day
  Number of killed root-knot nematodes: 7
[1]; 2,000 ppm, 2 days
  Number of killed root-knot nematodes: 9
[1]; 2,000 ppm, 3 days
  Number of killed root-knot nematodes: 10
[1]; 2,000 ppm
  Nematocidal efficiency (%): 66.7%

## pyrethrin [reference compound]
[1]; 2,000 ppm, 1 day
  Number of killed root-knot nematodes: 5
[1]; 2,000 ppm, 2 days
  Number of killed root-knot nematodes: 6
[1]; 2,000 ppm, 3 days
  Number of killed root-knot nematodes: 11
[1]; 2,000 ppm
  Nematocidal efficiency (%): 73.3%
